According to paper PMC9940101, “Elucidation of the (R)-enantiospecific benzylisoquinoline alkaloid biosynthetic pathways in sacred lotus (Nelumbo nucifera)” (Scientific Reports, 2023):

How the values were obtained:
[1] = tested on: NnOMT7; assay: LC-MS/MS product quantification, Michaelis-Menten fit; format: biochemical, Nelumbo nucifera; conditions: 400 µM SAM, 100 mM Tris-HCl pH 7.5, 30 °C, 5 min
[2] = biological target: T1, NnOMT1 (Nelumbo nucifera, UniProt A0A3G1RSF0); assay: substrate conversion by LC-MS/MS; format: biochemical; conditions: 100 µM substrate, 200 µM SAM, pH 7.5, 30 °C; 6-O-methylation
T1 construct: gene 6OMT
T1 sequence (A0A3G1RSF0 entry or part of it): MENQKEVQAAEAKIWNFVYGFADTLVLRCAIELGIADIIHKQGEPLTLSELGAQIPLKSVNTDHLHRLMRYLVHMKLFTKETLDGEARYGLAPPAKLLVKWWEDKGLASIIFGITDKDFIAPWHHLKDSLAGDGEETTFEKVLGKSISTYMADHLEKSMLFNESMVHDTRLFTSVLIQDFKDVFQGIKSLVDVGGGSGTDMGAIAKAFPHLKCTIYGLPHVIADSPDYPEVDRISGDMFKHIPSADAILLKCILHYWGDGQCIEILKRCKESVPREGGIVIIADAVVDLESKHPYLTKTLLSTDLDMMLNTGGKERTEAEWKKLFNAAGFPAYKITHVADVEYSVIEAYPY

Row | Km ([1]; 7-O-methylation) [µM] | Structure (SMILES) | Km ([1]; 6-O-methylation) [µM] | substrate conversion by LC-MS/MS [2]
1 | – | Oc1ccc(CC2NCCc3cc(O)c(O)cc32)cc1 (racemic) [(R,S)-norcoclaurine] | 143 ± 30 | NnOMT1 activity with racemic norcoclaurine was higher compared with (S)-norcoclaurine
2 | 48 ± 4 | COc1cc2c(cc1O)[C@H](Cc1ccc(O)cc1)N(C)CC2 [(S)-N-methylcoclaurine] | – | –
3 | – | Oc1ccc(C[C@@H]2NCCc3cc(O)c(O)cc32)cc1 [(S)-norcoclaurine] | – | NnOMT1 activity with racemic norcoclaurine was higher compared with (S)-norcoclaurine
